Test results taken from patent US10039729B2, “Use of kukoamine A and kukoamine B” (Tianjin Chase Sun Pharmaceutical Co., Ltd., priority 2010, dated 2018).

What was measured:
RAW264.7 cells = assay: Cell vitality of RAW264.7 cells (MTT assay); format: cell-based, murine; details: 24 h; for RAW264.7 cells vitality (OD550): 200 μg/ml, p>0.05
Protocol: (1) Influence on vitality of RAW264.7 cells: According to embodiment 7, for the purpose of experiment a medium group, KB group (25, 50, 100, 200, 400 and 800 μM), a LPS (100 ng/ml)+KB (0, 100, 200 and 400 μM) group and a CpG DNA (10 μg/ml)+KB (0, 100, 200 and 400 μM) group were established; MTT was dissolved with PBS to make 5 mg/ml solution and filtered, which served as stock solution and stored at −20° C. for further detection; RAW264.7 cells were adjusted to 1×10^6/ml in DMEM medium, added into 96-well plates (200 μl per well), and cultured at 37° C. in a 5% CO2 humidified incubator for 4 h; the specified concentration of LPS, CpG DNA and KB were separately loaded according to the grouping; cells were cultured at 37° C. in a 5% CO2 humidified incubator for 24 h, centrifuged at 1000 rpm/min for 5 min; the supernatant was sucked and discarded; each well was added with 180 μl cell culture medium and 20 μl MTT stock solution, then cultured at 37° C. in a 5% CO2 humidified incubator for 4 h, and centrifuged at 1000 rpm/min for 10 min; then the supernatant was sucked and discarded; each well was added with 150 μl DMSO, and shook for 10 min for the dissolution of the crystals; RAW264.7 cells vitality was expressed as absorbance values at 550 nm of each well, which were instantly assayed by ELIASA.

NF-κB = NF-κB activation in RAW264.7 cells (ELISA of nuclear p50/p65, luciferase reporter gene assay); format: cell-based, murine; details: KB 200 μM
Protocol: […]
Detection of NF-κB activation using ELISA: Each well was added with 30 μl binding solution (3.2 μl DTT and 16.2 μl Herring sperm DNA were diluted in 1.6 ml binding solutions); each sample well was added with 20 μl sample ([…]); positive control wells was added with 20 μl p50; blank control wells were added with 20 μl dissolution buffer (0.9 μl 1M DTT and 1.8 μl protease inhibitors was diluted in 177.3 μl dissolution buffer AM2); the microtiter plate was shaken for 30 seconds for completely mixing, incubated at room temperature for 1 h, and then washed thrice with 200 μl 1×wash solution (450 μl 10×wash solution were diluted in 4.05 ml ddH2O) and gentle shaking for 5 min each time; each well was added with 100 μl NF-κB antibody (1:1000), incubated for 1 h, then washed thrice with 200 μl 1×wash solution and gentle shaking for 5 min each time; each well was added with 100 μl HRP antibody (1:1000), incubated for 1 h, then washed four times with 200 μl 1×wash solution and gentle shaken for 5 min each time; each well was added with 100 μl detection reagent, incubated for 5 min away from light, and then added with 100 μl stop solution; the absorbance value at 450 nm of each well was detected. […]

Compound | RAW264.7 cells vitality (OD550) (RAW264.7 cells) | increase of p50 and p65 levels in nuclear proteins induced by LPS and CpG DNA (NF-κB; 2 h, ELISA) | NF-κB activation induced by LPS and CpG DNA (luciferase reporter gene assay) (NF-κB; 6 h) | absorbance values (vitality of RAW264.7 cells) vs medium group (RAW264.7 cells; KB 25-800 μM, or KB 0-400 μM plus LPS 100 ng/ml or CpG DNA 10 μg/ml)
O=C(CCc1ccc(O)c(O)c1)NCCCNCCCCNCCCNC(=O)CCc1ccc(O)c(O)c1 [KA, Kukoamine A] | no influence on RAW264.7 cells vitality |  |  | 
NCCCN(CCCCNCCCNC(=O)CCc1ccc(O)c(O)c1)C(=O)CCc1ccc(O)c(O)c1 [KB, Kukoamine B] | no influence on RAW264.7 cells vitality | significantly inhibited | inhibit NF-κB activation | no statistic difference on absorbance values
